Source: patent US8212038B2, “Methods and compositions for controlling ectoparasites” (HatchTech Pty Ltd., priority 2003, dated 2012)

Assays:
lice eggs = experiment: Time course in vitro lice egg hatching assay; format: in vivo, Pediculus humanus humanus; details: for effect on egg hatching (in words): results not shown
[1] = tested on: Helicoverpa armigera eggs (Tatura×Toowoomba strains); experiment: Egg hatch of Helicoverpa armigera after exposure to inhibitor; details: for % Inhibition of egg hatch relative to the control / Number hatched / Number unhatched: Example 15, day 6 post laying
Procedure: Several hundred Helicoverpa armigera eggs (Tatura×Toowoomba strains) were collected, that had been laid on fine mesh cloth over a 24 hour period.
Batches of Helicoverpa eggs were exposed to a specific inhibitor solution for between 2-10 seconds the excess solution drained by blotting with dry tissue paper. The egg masses were then placed in a humid box at 25 degrees until egg hatch. Control eggs were exposed to absolute methanol as described above.

[2] = tested on: Plutella xylostella eggs (Waite strain); experiment: Reversal of ovicidal effect by FeSO4 on Plutella xylostella eggs; format: in vivo
Procedure: (§1) Within 24 hours of collection the following experimental design was chosen. Batches of eggs were exposed to 10 mM 6,69-dimethyl-2,29-dipyridyl for 2 seconds while additional batches of eggs were exposed to the solvent only (Methanol) for 2 seconds. All batches of eggs were allowed to air dry for 20 minutes at room temperature. The eggs were then given a 2 second exposure to FeSO4 at either 10, 5 or 1 mM, air dried and put in the incubator at 24° C. and allowed to hatch over the next 6 days. In addition, a positive control of 10 mM 6,69-dimethyl-2,29-dipyridyl was set up in which eggs were exposed to this compound for 2 seconds, air dried and placed in the incubator.
as §1, with “10 mM 5,59-dimethyl-2,29-dipyridyl for 2” for “10 mM 6,69-dimethyl-2,29-dipyridyl for 2”, “FeSO4 at 10, 5” for “FeSO4 at either 10, 5”, “put in an incubator at” for “put in the incubator at”, “of 10 mM, 5,59-dimethyl-2,29-dipyridyl was set” for “of 10 mM 6,69-dimethyl-2,29-dipyridyl was set”

B. ovis eggs = experiment: Egg hatching in Bovicola ovis; format: in vivo; details: 10 mM
Procedure: B. ovis eggs were collected from the wool of sheep that were infested with this parasite. The eggs were collected using forceps and with the aid of a dissecting microscope and placed in 24 well tissue culture plates in duplicate lots of 10 eggs per replicate. The eggs were then exposed to either methanol alone (control) or the test compounds for either 10 minutes or 1 minute before being removed from the wells and placed into individual glass vials containing a diet at the base of the tube. The tubes were placed in plastic containers containing a salt solution (to keep humidity constant at 68%) and the containers maintained at a temperature 32° C. The eggs were monitored for hatching over the following 12 days and % hatch inhibition determined in comparison to the controls.

[3] = tested on: Plutella xylostella eggs (Waite strain); experiment: Egg hatch of Plutella xylostella after dipping in inhibitor; details: for % Inhibition of egg hatch relative to controls / Number hatched / Number unhatched: Example 13
Procedure: The egg masses were then placed in a humid box at 25 degrees until egg hatch. Control eggs were exposed to absolute methanol as described above. At day 6 post laying the eggs were assessed from the different treatments and the percentage of egg hatch determined relative to the control as shown in Table 9.
Batches of Plutella eggs that were laid on either fine cloth or parafilm were dipped in a specific inhibitor solution for between 2-10 seconds, the excess solution was drained by blotting with dry tissue paper. The egg masses were then placed in a humid box at 25 degrees until egg hatch. Control eggs were exposed to absolute methanol as described above or not treated.
The egg masses were then placed in a humid box at 25 degrees until egg hatch. Control eggs were exposed to absolute ethanol as described above. On day 6 post laying the eggs were assessed from the different treatments and the percentage of egg hatch determined relative to the control.

[4] = 10 mM followed by 2 second exposure to 1 mM FeSO4
[5] = 10 mM followed by 2 second exposure to 5 mM FeSO4
[6] = 10 mM followed by 2 second exposure to 10 mM FeSO4
[7] = 10 mM followed by 2 second exposure to MEOH
[8] = 10 mM, 2 seconds, (+ve) control, no second exposure

## O=C(O)CN(CCOCCOCCN(CC(=O)O)CC(=O)O)CC(=O)O [EGTA, reference compound]
Lice eggs; 10 mM
  effect on egg hatching (in words): did not appear to have an effect on egg hatching

## Cc1ccc(-c2ccc(C)cn2)nc1 [5,5′-dimethyl-2,2′-dipyridyl]
[1]; 10 mM
  inhibition of egg hatching of Helicoverpa armigera (in words): significant inhibition of egg hatching
  % Inhibition of egg hatch relative to the control: 100%
  Number hatched: 0
  Number unhatched: 42
[2]; [4]
  % Inhibition: 0%
  Number hatched: 39
  Number unhatched: 0
[2]; [5]
  % Inhibition: 0%
  Number hatched: 25
  Number unhatched: 0
[2]; [6]
  % Inhibition: 8%
  Number hatched: 23
  Number unhatched: 2
[2]; [7]
  % Inhibition: 55%
  Number hatched: 16
  Number unhatched: 19
[2]; 10 mM inhibitor, then FeSO4 10, 5 or 1 mM
  effect of added Fe (FeSO4) on the ovicidal effect (in words): able to reverse the effects
[2]; [8]
  % Inhibition: 100%
  Number hatched: 0
  Number unhatched: 38
B. ovis eggs; 10 or 1 minute exposure
  inhibition of egg hatching (in words): completely inhibited
B. ovis eggs; 1 minute exposure
  % Inhibition: 100%
B. ovis eggs; 10 minute exposure
  % Inhibition: 100%
[3]; 10 and 1 mM
  inhibition of egg hatching in Plutella xylostella (in words): significantly inhibit egg hatching
[3]; eggs laid on cloth, 1 mM
  % Inhibition of egg hatch relative to controls: 78%
  Number hatched: 5
  Number unhatched: 22
[3]; eggs laid on cloth, 10 mM
  % Inhibition of egg hatch relative to controls: 100%
  Number hatched: 0
  Number unhatched: 21
[3]; eggs laid on parafilm, 1 mM
  % Inhibition of egg hatch relative to controls: 88%
  Number hatched: 18
[3]; eggs laid on parafilm, 10 mM
  % Inhibition of egg hatch relative to controls: 100%
  Number hatched: 0

## O=C(O)CN(CCN(CC(=O)O)CC(=O)O)CC(=O)O [EDTA, reference compound]
Lice eggs; 100 mM
  effect on egg hatching (in words): did not appear to have an effect on egg hatching

## c1ccc(-c2ccccn2)nc1 [2,29-dipyridyl]
Lice eggs; in vivo
  inhibition of lice egg hatching (in words): completely inhibited
Lice eggs; per replicate, […], concentration not given
  Ph (number of eggs partly hatched): 0

## Cc1ccnc(-c2cc(C)ccn2)c1 [4,4′-dimethyl-2,2′-dipyridyl]
[1]; 1 mM
  inhibition of egg hatching of Helicoverpa armigera (in words): significant inhibition of egg hatching
  % Inhibition of egg hatch relative to the control: 66%
  Number hatched: 23
  Number unhatched: 29
[1]; 10 mM
  inhibition of egg hatching of Helicoverpa armigera (in words): significant inhibition of egg hatching
  % Inhibition of egg hatch relative to the control: 84%
  Number hatched: 8
  Number unhatched: 43
[3]; 10 and 1 mM
  inhibition of egg hatching in Plutella xylostella (in words): significantly inhibit egg hatching
[3]; eggs laid on cloth, 1 mM
  % Inhibition of egg hatch relative to controls: 100%
  Number hatched: 0
  Number unhatched: 30
[3]; eggs laid on cloth, 10 mM
  % Inhibition of egg hatch relative to controls: 100%
  Number hatched: 0
  Number unhatched: 36
[3]; eggs laid on parafilm, 1 mM
  % Inhibition of egg hatch relative to controls: 91%
  Number hatched: 10
[3]; eggs laid on parafilm, 10 mM
  % Inhibition of egg hatch relative to controls: 100%
  Number hatched: 0

## CC(C)C[C@H](CC(=O)O)C(=O)N[C@@H](Cc1c[nH]c2ccccc12)C(=O)N[C@@H](C)c1ccccc1 [GM 1489, reference compound]
Lice eggs; concentration not given
  % Inhibition of lice egg hatching (maximum over the time-course): 0%

## c1ccc(-c2ccc3ccccc3n2)nc1 [2-(2-pyridinyl)quinoline]
[3]; 10 mM
  inhibition of egg hatching in Plutella xylostella (in words): able to inhibit egg hatching
